Reference: the supplement of paper PMC11061612

Key:
[1] = test system: SW1271 (Small Cell Lung Carcinoma); test: combination Emax (second highest fraction inhibited in the dose matrix, 72 h); higher = more inhibition; extreme values may be limits of the assay
How it was run: (§1)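 Bliss excess equals the observed combination effect minus the expected value EA + EB − EA·EB, where EA and EB are the effects of each agent alone. Combination Emax is the second-highest inhibition within the matrix. Inhibition was scaled from CellTiter-Glo 2.0 luminescence, with 0 set by vehicle wells and 1 by blank wells, after 72 hours of two-drug dosing of cells plated in 1536-well plates.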

[2] = test system: KARPAS-231 (B-Cell Non-Hodgkin's Lymphoma); test: as above
How it was run: as §1

[3] = test system: HARA (Squamous Cell Lung Carcinoma); test: as above
How it was run: as §1

[4] = test system: NCI-H69 (Small Cell Lung Carcinoma); test: as above
How it was run: as §1

[5] = test system: CAL-54 (Kidney Carcinoma); test: as above
How it was run: as §1

[6] = test system: HMV-II (Melanoma); test: as above
How it was run: as §1

[7] = test system: LB771-HNC (Head and Neck Carcinoma); test: as above
How it was run: as §1

[8] = test system: RPMI-6666 (Non-Cancerous); test: as above
How it was run: as §1

[9] = test system: CAPAN-1 (Pancreatic Carcinoma); test: as above
How it was run: as §1

[10] = test system: MHH-PREB-1 (B-Cell Non-Hodgkin's Lymphoma); test: as above
How it was run: as §1

[11] = test system: NCI-H28 (Mesothelioma); test: as above
How it was run: as §1

[12] = test system: LU-139 (Small Cell Lung Carcinoma); test: as above
How it was run: as §1

[13] = test system: SK-OV-3 (Ovarian Carcinoma); test: as above
How it was run: as §1

[14] = test system: COLO-829 (Melanoma); test: as above
How it was run: as §1

[15] = test system: NB14 (Neuroblastoma); test: as above
How it was run: as §1

[16] = test system: HCC-15 (Squamous Cell Lung Carcinoma); test: as above
How it was run: as §1

[17] = test system: CAL-51 (Breast Carcinoma); test: Bliss excess, mean over the matrix (fraction); higher = more synergy
How it was run: as §1

[18] = test system: PCI-30 (Head and Neck Carcinoma); test: as above
How it was run: as §1

[19] = test system: OVCAR-8 (Ovarian Carcinoma); test: as above
How it was run: as §1

[20] = test system: RT-112 (Bladder Carcinoma); test: as above
How it was run: as §1

Row | Structure (SMILES) | combination Emax [1] | combination Emax [2] | combination Emax [3] | combination Emax [4] | combination Emax [5] | combination Emax [6] | combination Emax [7] | combination Emax [8] | combination Emax [9] | combination Emax [10] | combination Emax [11] | combination Emax [12] | combination Emax [13] | combination Emax [14] | combination Emax [15] | combination Emax [16] | Bliss excess [17] | Bliss excess [18] | Bliss excess [19] | Bliss excess [20]
1 | Cc1cc2ncnn2cc1Nc1ncc2c(n1)n(C1CCOCC1)c(=O)n2C [AZD7648] + CCN(CCO)CCCOc1ccc2c(Nc3cc(CC(=O)Nc4cccc(F)c4)[nH]n3)ncnc2c1 [AZD2811] (first compound max 10 µM, 7x7, partner max 1 µM) | 0.376 | 0.517 | 0.364 | 0.743 | 0.443 | 0.37 | 0.251 | 0.584 | 0.299 | 0.343 | 0.345 | 0.397 | 0.367 | 0.196 | 0.837 | 0.703 | 0.076 | -0.0267 | 0.0473 | 0.0796
2 | COc1nnc2ccc(N3CCC(c4ccc(OCCN5CCN(C)C(=O)[C@H]5C)cc4)CC3)nn12 [AZD5153] + C=CCn1c(=O)c2cnc(Nc3ccc(N4CCN(C)CC4)cc3)nc2n1-c1cccc(C(C)(C)O)n1 [AZD1775] (first compound max 1 µM, partner max 1 µM) | 0.649 | 0.978 | 0.928 | 0.678 | 0.832 | 0.709 | 0.627 | 0.828 | 0.549 | 0.825 | 0.508 | 0.89 | 0.506 | 0.283 | 1 | 0.674 | -0.0111 | -0.0307 | -0.0631 | -0.0342
3 | CN(C)CCCOc1ccc(-c2ccc3ncc4c(c3c2)n(C2CCOCC2)c(=O)n4C)cn1 [AZD0156] + C=CCn1c(=O)c2cnc(Nc3ccc(N4CCN(C)CC4)cc3)nc2n1-c1cccc(C(C)(C)O)n1 [AZD1775] (first compound max 1 µM, partner max 1 µM) | 0.476 | 0.988 | 0.809 | 0.312 | 0.642 | 0.401 | 0.557 | 0.923 | 0.394 | 0.844 | 0.434 | 0.59 | 0.54 | 0.099 | 1 | 0.299 | -0.0303 | -0.0356 | -0.0053 | -0.0193
4 | Cc1c2c(nn1C)CSCc1cc(n(C)n1)CSc1cc(c3ccccc3c1)OCCCc1c(C(=O)O)n(C)c3c-2c(Cl)ccc13 [AZD5991] + Cn1cnc2c(F)c(Nc3ccc(Br)cc3Cl)c(C(=O)NOCCO)cc21 [Selumetinib] (first compound max 1 µM, 7x7, partner max 3 µM) | 0.448 | 1 | 0.223 | 0.218 | 0.28 | 0.829 | 0.429 | 0.695 | 0.381 | 0.13 | 0.316 | 0.148 | 0.333 | 0.907 | 0.76 | 0.563 | 0.0634 | -0.0352 | 0.0416 | 0.102
5 | C=CCn1c(=O)c2cnc(Nc3ccc(N4CCN(C)CC4)cc3)nc2n1-c1cccc(C(C)(C)O)n1 [AZD1775] + CCc1c2c(nc3ccc(O)cc13)-c1cc3c(c(=O)n1C2)COC(=O)[C@]3(O)CC [SN-38] (first compound max 1 µM, partner max 0.3 µM) | 0.62 | – | 0.943 | 0.748 | 0.843 | 0.634 | – | 0.917 | 0.799 | – | 0.551 | 0.849 | 0.525 | – | 0.997 | – | – | 0.0013 | – | 0.109
6 | CS(=O)(=O)CCNCc1ccc(-c2ccc3ncnc(Nc4ccc(OCc5cccc(F)c5)c(Cl)c4)c3c2)o1 [Lapatinib] + NC1(c2ccc(-c3nc4ccn5c(=O)[nH]nc5c4cc3-c3ccccc3)cc2)CCC1 [MK-2206] (first compound max 10 µM, 7x7, partner max 10 µM) | 0.739 | – | 0.953 | 0.956 | 0.921 | 0.904 | – | 0.766 | 0.331 | – | 0.607 | 0.672 | 0.658 | 0.311 | 0.941 | – | – | -0.0005 | – | 0.0746
7 | Cc1c2c(nn1C)CSCc1cc(n(C)n1)CSc1cc(c3ccccc3c1)OCCCc1c(C(=O)O)n(C)c3c-2c(Cl)ccc13 [AZD5991] + CN(C)CCCOc1ccc(-c2ccc3ncc4c(c3c2)n(C2CCOCC2)c(=O)n4C)cn1 [AZD0156] (first compound max 1 µM, 7x7, partner max 1 µM) | 0.27 | 1 | 0.312 | 0.314 | 0.263 | 0.256 | 0.442 | 0.502 | 0.252 | – | 0.194 | 0.21 | 0.342 | 0.118 | 0.771 | 0.303 | 0.0198 | 0.0079 | 0.0408 | -0.0217
